Measurements as given in publication PMC11820896, “New Compounds with Enhanced Biological Activity Through the Strategic Introduction of Silylated Groups into Hydroxystearic Acids” (Molecules, 2025).

What was measured:
[1] = tested on: human tumor cell lines (HT29, MCF-7, HeLa, U2OS, and J6); test: Antiproliferative activity in the series of human tumor cell lines; assay type: cell-based; conditions: MTT; concentration range of 10–500 nM
Method: (§1) The human colorectal adenocarcinoma (Caco-2), human colorectal adenocarcinoma (HT29), normal human intestinal (I407), human cervical cancer (HeLa), human breast cancer (MCF7), human bone osteosarcoma (U2OS), and human acute T-cell leukemia (Jurkat J6) cell lines were purchased from American Type Culture Collection (ATCC, Manassas, VA, USA). Cells were cultured in RPMI 1640 medium (Labtek Eurobio, Milan, Italy), supplemented with 10% FCS (Euroclone, Milano, Italy) and 2 mM L-glutamine (Sigma-Aldrich, Milano, Italy), at 37 °C and in a 5% CO2 atmosphere. The compounds were dissolved in DMSO in a 30–40 mM stock solution. In cell treatments, the final DMSO concentration never exceeded 0.1%.
(§2) Cells were seeded in a 96-well culture plastic plate (Sarsted, Milan, Italy), at 5 × 10^4 cells/well and, after 24 h, were exposed to increasing concentrations of the different compounds (from 1 nM to 500 nM) dissolved in RPMI 1640 medium. An MTT assay was performed according to Micheletti et al..
(§3) The absorbance at 570 nm was measured using a multi-well plate reader (Tecan, Männedorf, Switzerland), and data were analyzed by Prism GraphPad 8 software and expressed as IC50 nM.

[2] = tested on: HT29 cells; design: method as in PMID 14715257, PMID 22814230; conditions: cited from earlier work
[3] = tested on: histone deacetylase HDAC1; design: method as in PMID 14715257, PMID 15716589, PMID 16702808, PMID 17234448, PMID 22814230; conditions: cited from earlier work
[4] = tested on: U2OS; test: MTT assay, U2OS cells; assay type: cell-based; conditions: Homo sapiens, means of four experiments, na = not active, read-out: In vitro cytotoxic activity (IC50), U2OS
Method: as §1, §2, §3

[5] = tested on: HT29; test: MTT assay, HT29 cells; assay type: cell-based, human; conditions: Homo sapiens, HT-29; MTT; means of four experiments; na = not active; read-out: In vitro cytotoxic activity (IC50), HT29
Method: as §1, §2, §3

[6] = tested on: J6; test: MTT assay, Jurkat J6 cells; assay type: cell-based; conditions: Homo sapiens, means of four experiments, na = not active, read-out: In vitro cytotoxic activity (IC50), J6
Method: as §1, §2, §3

[7] = tested on: HeLa; test: MTT assay, HeLa cells; assay type: cell-based; conditions: Homo sapiens, means of four experiments, na = not active, read-out: In vitro cytotoxic activity (IC50), HeLa
Method: as §1, §2, §3

[8] = tested on: MCF7; test: MTT assay, MCF7 cells; assay type: cell-based; conditions: Homo sapiens, means of four experiments, na = not active, read-out: In vitro cytotoxic activity (IC50), MCF7
Method: as §1, §2, §3

[9] = tested on: histones H2/H3 and H4 of HT29 cells; design: method as in PMID 15716589, PMID 22814230; conditions: cited from earlier work

SMILES	antitumor activity across all cell lines tested [1]	concentration inducing the same effect on the cell cycle (G0/G1 arrest) [2]	IC50 [4]	IC50 [5]	IC50 [7]	further results
CCCCCCCCC(O[Si](C)(C)C(C)(C)C)C(CCCCCCCC(=O)OC)O[Si](C)(C)C(C)(C)C (racemic) [Compound 10, Rac-erythro-methyl 9,10-bis((tert-butyldimethylsilyl)oxy)octadecanoate]	no activity					
CCCCCCCCCC(O)CCCCCCCC(=O)O (stereo not drawn) [Compound 9-HSA, 9-hydroxystearic acid]		100 µM				inhibition of histone deacetylase HDAC1 [3]: selectively inhibits
CCCCCCCCC[C@H](CCCCCCCC(=O)OC)O[Si](C)(C)C(C)(C)C [Compound 3, Methyl (R)-9-((tert-butyldimethylsilyl)oxy)octadecanoate]	showed antitumor activity		29.33 ± 0.23 nM	84.76 ± 0.1 nM	133.7 ± 0.32 nM	IC50 [6]: 151.6 ± 0.31 nM; IC50 [8]: 134 ± 0.27 nM
CCCCCCCCC(O[Si](C)(C)C(C)(C)C)C(CCCCCCCC(=O)O)O[Si](C)(C)C(C)(C)C (racemic) [Compound 13, Rac-erythro-9,10-bis((tert-butyldimethylsilyl)oxy)octadecanoic Acid]	showed antitumor activity		41.95 ± 0.29 nM	25.3 ± 0.27 nM	131.8 ± 0.21 nM	
CCCCCCCCC[C@@H](O)CCCCCCCC(=O)O [(R)-9-HSA, (R)-9-hydroxystearic acid]		50 µM				histone acetylation (free acid) [9]: induces hyperacetylation of histone H4
